# Reference: PubChem BioAssay (NCI)
#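 Each compound was tested at five concentrations against cells in 96-well plates for 48 hours. Here, GI50 denotes the concentration required for 50% inhibition of growth. TGI: concentration producing complete growth inhibition.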
# Tests used:
# Assay in all cases: inhibition of tumour cell growth, NCI panel, 48 h
# U251 CNS = test system: U251 CNS
# UACC-257 melanoma = test system: UACC-257 melanoma
# NCI-H460 lung = test system: NCI-H460 lung
# SW-620 colon = test system: SW-620 colon
# HCT-116 colon = test system: HCT-116 colon
# SF-539 CNS = test system: SF-539 CNS
# MOLT-4 leukemia = test system: MOLT-4 leukemia
# UO-31 renal = test system: UO-31 renal
# OVCAR-4 ovarian = test system: OVCAR-4 ovarian
# COLO 205 colon = test system: COLO 205 colon
# DU-145 prostate = test system: DU-145 prostate
# NCI/ADR-RES ovarian = test system: NCI/ADR-RES ovarian
# SK-OV-3 ovarian = test system: SK-OV-3 ovarian
# PC-3 prostate = test system: PC-3 prostate
# 786-0 renal = test system: 786-0 renal
# KM12 colon = test system: KM12 colon
# IGROV1 ovarian = test system: IGROV1 ovarian
# TK-10 renal = test system: TK-10 renal
# HT29 colon = test system: HT29 colon
# RXF 393 renal = test system: RXF 393 renal
# HOP-62 NSCLC = test system: HOP-62 NSCLC
# OVCAR-8 ovarian = test system: OVCAR-8 ovarian
# SNB-75 CNS = test system: SNB-75 CNS
# MALME-3M melanoma = test system: MALME-3M melanoma
# NCI-H23 lung = test system: NCI-H23 lung
# SF-268 CNS = test system: SF-268 CNS
# EKVX NSCLC = test system: EKVX NSCLC
# HL-60(TB) leukemia = test system: HL-60(TB) leukemia
# HCC-2998 colon = test system: HCC-2998 colon
# MDA-MB-231 breast = test system: MDA-MB-231 breast
# HCT-15 colon = test system: HCT-15 colon
# RPMI-8226 leukemia = test system: RPMI-8226 leukemia
# MDA-MB-435 = test system: MDA-MB-435
# SN12C renal = test system: SN12C renal
# UACC-62 melanoma = test system: UACC-62 melanoma
# M14 melanoma = test system: M14 melanoma
# CCRF-CEM leukemia = test system: CCRF-CEM leukemia
# A549 NSCLC = test system: A549 NSCLC
# OVCAR-3 ovarian = test system: OVCAR-3 ovarian
# SK-MEL-5 melanoma = test system: SK-MEL-5 melanoma
# CAKI-1 renal = test system: CAKI-1 renal
# K-562 leukemia = test system: K-562 leukemia
# SK-MEL-28 melanoma = test system: SK-MEL-28 melanoma
# T-47D breast = test system: T-47D breast
# NCI-H226 lung = test system: NCI-H226 lung
# SF-295 CNS = test system: SF-295 CNS
# NCI-H522 lung = test system: NCI-H522 lung
# SNB-19 CNS = test system: SNB-19 CNS
# LOX IMVI melanoma = test system: LOX IMVI melanoma
# A498 renal = test system: A498 renal
# OVCAR-5 ovarian = test system: OVCAR-5 ovarian
# BT-549 breast = test system: BT-549 breast
# HS 578T breast = test system: HS 578T breast
# ACHN renal = test system: ACHN renal
# MCF7 breast = test system: MCF7 breast
# SR leukemia = test system: SR leukemia
smiles,measurement,setting,value
CN(C)c1ccc(Nc2ncnc3ccccc23)cc1,GI50,U251 CNS,> 100 µM
same,TGI,U251 CNS,> 100 µM
same,GI50,UACC-257 melanoma,> 100 µM
same,TGI,UACC-257 melanoma,> 100 µM
same,GI50,NCI-H460 lung,> 100 µM
same,TGI,NCI-H460 lung,> 100 µM
same,GI50,SW-620 colon,> 100 µM
same,TGI,SW-620 colon,> 100 µM
same,GI50,HCT-116 colon,> 100 µM
same,TGI,HCT-116 colon,> 100 µM
same,GI50,SF-539 CNS,> 100 µM
same,TGI,SF-539 CNS,> 100 µM
same,GI50,MOLT-4 leukemia,18.8 µM
same,TGI,MOLT-4 leukemia,> 100 µM
same,GI50,UO-31 renal,> 100 µM
same,TGI,UO-31 renal,> 100 µM
same,GI50,OVCAR-4 ovarian,> 100 µM
same,TGI,OVCAR-4 ovarian,> 100 µM
same,GI50,COLO 205 colon,> 100 µM
same,TGI,COLO 205 colon,> 100 µM
same,GI50,DU-145 prostate,> 100 µM
same,TGI,DU-145 prostate,> 100 µM
same,GI50,NCI/ADR-RES ovarian,> 100 µM
same,TGI,NCI/ADR-RES ovarian,> 100 µM
same,GI50,SK-OV-3 ovarian,> 100 µM
same,TGI,SK-OV-3 ovarian,> 100 µM
same,GI50,PC-3 prostate,> 100 µM
same,TGI,PC-3 prostate,> 100 µM
same,GI50,786-0 renal,> 100 µM
same,TGI,786-0 renal,> 100 µM
same,GI50,KM12 colon,> 100 µM
same,TGI,KM12 colon,> 100 µM
same,GI50,IGROV1 ovarian,> 100 µM
same,TGI,IGROV1 ovarian,> 100 µM
same,GI50,TK-10 renal,> 100 µM
same,TGI,TK-10 renal,> 100 µM
same,GI50,HT29 colon,> 100 µM
same,TGI,HT29 colon,> 100 µM
same,GI50,RXF 393 renal,> 100 µM
same,TGI,RXF 393 renal,> 100 µM
same,GI50,HOP-62 NSCLC,> 100 µM
same,TGI,HOP-62 NSCLC,> 100 µM
same,GI50,OVCAR-8 ovarian,> 100 µM
same,TGI,OVCAR-8 ovarian,> 100 µM
same,GI50,SNB-75 CNS,> 100 µM
same,TGI,SNB-75 CNS,> 100 µM
same,GI50,MALME-3M melanoma,> 100 µM
same,TGI,MALME-3M melanoma,> 100 µM
same,GI50,NCI-H23 lung,> 100 µM
same,TGI,NCI-H23 lung,> 100 µM
same,GI50,SF-268 CNS,> 100 µM
same,TGI,SF-268 CNS,> 100 µM
same,GI50,EKVX NSCLC,> 100 µM
same,TGI,EKVX NSCLC,> 100 µM
same,GI50,HL-60(TB) leukemia,> 100 µM
same,TGI,HL-60(TB) leukemia,> 100 µM
same,GI50,HCC-2998 colon,> 100 µM
same,TGI,HCC-2998 colon,> 100 µM
same,GI50,MDA-MB-231 breast,> 100 µM
same,TGI,MDA-MB-231 breast,> 100 µM
same,GI50,HCT-15 colon,> 100 µM
same,TGI,HCT-15 colon,> 100 µM
same,GI50,RPMI-8226 leukemia,> 100 µM
same,TGI,RPMI-8226 leukemia,> 100 µM
same,GI50,MDA-MB-435,> 100 µM
same,TGI,MDA-MB-435,> 100 µM
same,GI50,SN12C renal,> 100 µM
same,TGI,SN12C renal,> 100 µM
same,GI50,UACC-62 melanoma,> 100 µM
same,TGI,UACC-62 melanoma,> 100 µM
same,GI50,M14 melanoma,> 100 µM
same,TGI,M14 melanoma,> 100 µM
same,GI50,CCRF-CEM leukemia,> 100 µM
same,TGI,CCRF-CEM leukemia,> 100 µM
same,GI50,A549 NSCLC,> 100 µM
same,TGI,A549 NSCLC,> 100 µM
same,GI50,OVCAR-3 ovarian,> 100 µM
same,TGI,OVCAR-3 ovarian,> 100 µM
same,GI50,SK-MEL-5 melanoma,> 100 µM
same,TGI,SK-MEL-5 melanoma,> 100 µM
same,GI50,CAKI-1 renal,> 100 µM
same,TGI,CAKI-1 renal,> 100 µM
same,GI50,K-562 leukemia,> 100 µM
same,TGI,K-562 leukemia,> 100 µM
same,GI50,SK-MEL-28 melanoma,> 100 µM
same,TGI,SK-MEL-28 melanoma,> 100 µM
same,GI50,T-47D breast,> 100 µM
same,TGI,T-47D breast,> 100 µM
same,GI50,NCI-H226 lung,> 100 µM
same,TGI,NCI-H226 lung,> 100 µM
same,GI50,SF-295 CNS,> 100 µM
same,TGI,SF-295 CNS,> 100 µM
same,GI50,NCI-H522 lung,> 100 µM
same,TGI,NCI-H522 lung,> 100 µM
same,GI50,SNB-19 CNS,> 100 µM
same,TGI,SNB-19 CNS,> 100 µM
same,GI50,LOX IMVI melanoma,> 100 µM
same,TGI,LOX IMVI melanoma,> 100 µM
same,GI50,A498 renal,> 100 µM
same,TGI,A498 renal,> 100 µM
same,GI50,OVCAR-5 ovarian,> 100 µM
same,TGI,OVCAR-5 ovarian,> 100 µM
same,GI50,BT-549 breast,> 100 µM
same,TGI,BT-549 breast,> 100 µM
same,GI50,HS 578T breast,> 100 µM
same,TGI,HS 578T breast,> 100 µM
same,GI50,ACHN renal,> 100 µM
same,TGI,ACHN renal,> 100 µM
same,GI50,MCF7 breast,> 100 µM
same,TGI,MCF7 breast,> 100 µM
same,GI50,SR leukemia,54.3 µM
same,TGI,SR leukemia,> 100 µM
